{"source": "paper PMC11882969", "about": "(Nature Communications, 2025)", "molecular_target": "hCB2 (Homo sapiens, UniProt P34972)", "sequence (P34972 whole entry)": "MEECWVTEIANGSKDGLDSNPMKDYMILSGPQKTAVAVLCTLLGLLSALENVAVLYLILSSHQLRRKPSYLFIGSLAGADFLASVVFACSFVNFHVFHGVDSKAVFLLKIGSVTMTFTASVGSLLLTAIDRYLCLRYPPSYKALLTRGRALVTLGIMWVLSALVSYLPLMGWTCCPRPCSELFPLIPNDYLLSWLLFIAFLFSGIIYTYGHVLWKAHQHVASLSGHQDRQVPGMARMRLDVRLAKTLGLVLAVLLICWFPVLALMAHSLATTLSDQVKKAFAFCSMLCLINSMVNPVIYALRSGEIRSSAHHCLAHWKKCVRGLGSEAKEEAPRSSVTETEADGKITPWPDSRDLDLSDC", "test": "bioSensAll ebBRET signaling profiling, hCB2", "type": "cell-based", "set-up": "host or cells: HEK293SL cells, transient PEI transfection", "settings": "for G15 hCB2 / Gq hCB2 / Gs hCB2 / G13 hCB2: raw signal; for pEC50: read-out: EC50 [95% CI]; for Emax: normalized to CP-55,940", "note": "pEC50: −log10 of the molar value. “And” between values parts separate entries of the source, which are not always exact repeats. Equal values may be shown once. Read-outs that look alike come from different tables or passages of the source.", "data": [{"smiles": "COC(=O)[C@@](C)(NC(=O)c1cc(C)n(-c2cccc(C(F)(F)F)c2)n1)c1cccs1", "note": "[‘1350]", "values": [{"measurement": "G15 hCB2", "setting": "Log [Compound] (M) -5.05788", "value": 909}, {"measurement": "Gq hCB2", "setting": "Log [Compound] (M) -5.05788", "value": 1907}, {"measurement": "Gs hCB2", "setting": "Log [Compound] (M) -5.05788", "value": 9135}, {"measurement": "G13 hCB2", "setting": "Log [Compound] (M) -5.47381", "value": 332}, {"measurement": "G15 hCB2", "setting": "Log [Compound] (M) -5.47381", "value": 938}, {"measurement": "Gq hCB2", "setting": "Log [Compound] (M) -5.47381", "value": 1876}, {"measurement": "Gs hCB2", "setting": "Log [Compound] (M) -5.47381", "value": 8949}, {"measurement": "G13 hCB2", "setting": "Log [Compound] (M) -5.89285", "value": 339}, {"measurement": "G15 hCB2", "setting": "Log [Compound] (M) -5.89285", "value": 882}, {"measurement": "Gq hCB2", "setting": "Log [Compound] (M) -5.89285", "value": 1888}, {"measurement": "Gs hCB2", "setting": "Log [Compound] (M) -5.89285", "value": 8825}, {"measurement": "G13 hCB2", "setting": "Log [Compound] (M) -6.31878", "value": 340}, {"measurement": "G15 hCB2", "setting": "Log [Compound] (M) -6.31878", "value": 867}, {"measurement": "Gq hCB2", "setting": "Log [Compound] (M) -6.31878", "value": 1817}, {"measurement": "Gs hCB2", "setting": "Log [Compound] (M) -6.31878", "value": 8693}, {"measurement": "G13 hCB2", "setting": "Log [Compound] (M) -6.72585", "value": 337}, {"measurement": "G15 hCB2", "setting": "Log [Compound] (M) -6.72585", "value": 945}, {"measurement": "Gq hCB2", "setting": "Log [Compound] (M) -6.72585", "value": 1883}, {"measurement": "Gs hCB2", "setting": "Log [Compound] (M) -6.72585", "value": 8781}, {"measurement": "G13 hCB2", "setting": "Log [Compound] (M) -7.14267", "value": 379}, {"measurement": "G15 hCB2", "setting": "Log [Compound] (M) -7.14267", "value": 858}, {"measurement": "Gq hCB2", "setting": "Log [Compound] (M) -7.14267", "value": 1709}, {"measurement": "Gs hCB2", "setting": "Log [Compound] (M) -7.14267", "value": 8728}, {"measurement": "G13 hCB2", "setting": "Log [Compound] (M) -7.55284", "value": 353}, {"measurement": "G15 hCB2", "setting": "Log [Compound] (M) -7.55284", "value": 904}, {"measurement": "Gq hCB2", "setting": "Log [Compound] (M) -7.55284", "value": 1791}, {"measurement": "Gs hCB2", "setting": "Log [Compound] (M) -7.55284", "value": 8935}, {"measurement": "G13 hCB2", "setting": "Log [Compound] (M) -8", "value": 375}, {"measurement": "G15 hCB2", "setting": "Log [Compound] (M) -8", "value": 912}, {"measurement": "Gq hCB2", "setting": "Log [Compound] (M) -8", "value": 1812}, {"measurement": "Gs hCB2", "setting": "Log [Compound] (M) -8", "value": 8658}, {"measurement": "G13 hCB2", "setting": "Log [Compound] (M) -8.22186", "value": 364}, {"measurement": "G15 hCB2", "setting": "Log [Compound] (M) -8.22186", "value": 883}, {"measurement": "Gq hCB2", "setting": "Log [Compound] (M) -8.22186", "value": 1883}, {"measurement": "Gs hCB2", "setting": "Log [Compound] (M) -8.22186", "value": 9640}, {"measurement": "G13 hCB2", "setting": "Log [Compound] (M) -8.39794", "value": 287}, {"measurement": "G15 hCB2", "setting": "Log [Compound] (M) -8.39794", "value": 753}, {"measurement": "Gq hCB2", "setting": "Log [Compound] (M) -8.39794", "value": 1844}, {"measurement": "Gs hCB2", "setting": "Log [Compound] (M) -8.39794", "value": 8340}, {"measurement": "G13 hCB2", "setting": "Log [Compound] (M) -8.68787", "value": 322}, {"measurement": "G15 hCB2", "setting": "Log [Compound] (M) -8.68787", "value": 851}, {"measurement": "Gq hCB2", "setting": "Log [Compound] (M) -8.68787", "value": 1882}, {"measurement": "Gs hCB2", "setting": "Log [Compound] (M) -8.68787", "value": 8911}, {"measurement": "G13 hCB2", "setting": "Log [Compound] (M) -9.15521", "value": 356}, {"measurement": "G15 hCB2", "setting": "Log [Compound] (M) -9.15521", "value": 841}, {"measurement": "Gq hCB2", "setting": "Log [Compound] (M) -9.15521", "value": 1859}, {"measurement": "Gs hCB2", "setting": "Log [Compound] (M) -9.15521", "value": 8948}, {"measurement": "G13 hCB2", "setting": "Log [Compound] (M) -9.61989", "value": 303}, {"measurement": "G15 hCB2", "setting": "Log [Compound] (M) -9.61989", "value": 888}, {"measurement": "Gq hCB2", "setting": "Log [Compound] (M) -9.61989", "value": 1906}, {"measurement": "Gs hCB2", "setting": "Log [Compound] (M) -9.61989", "value": 8984}, {"measurement": "G13 hCB2", "setting": "Log [Compound] (M) -10.0969", "value": 348}, {"measurement": "G15 hCB2", "setting": "Log [Compound] (M) -10.0969", "value": 956}, {"measurement": "Gq hCB2", "setting": "Log [Compound] (M) -10.0969", "value": 1853}, {"measurement": "Gs hCB2", "setting": "Log [Compound] (M) -10.0969", "value": 9066}, {"measurement": "G13 hCB2", "setting": "Log [Compound] (M) -10.5529", "value": 333}, {"measurement": "G15 hCB2", "setting": "Log [Compound] (M) -10.5529", "value": 902}, {"measurement": "Gq hCB2", "setting": "Log [Compound] (M) -10.5529", "value": 1805}, {"measurement": "Gs hCB2", "setting": "Log [Compound] (M) -10.5529", "value": 9374}, {"measurement": "G13 hCB2", "setting": "Log [Compound] (M) -11.0177", "value": 340}, {"measurement": "G15 hCB2", "setting": "Log [Compound] (M) -11.0177", "value": 939}, {"measurement": "Gq hCB2", "setting": "Log [Compound] (M) -11.0177", "value": 1690}, {"measurement": "Gs hCB2", "setting": "Log [Compound] (M) -11.0177", "value": 9100}, {"measurement": "G13 hCB2", "setting": "Log [Compound] (M) -11.4949", "value": 323}, {"measurement": "G15 hCB2", "setting": "Log [Compound] (M) -11.4949", "value": 868}, {"measurement": "Gq hCB2", "setting": "Log [Compound] (M) -11.4949", "value": 1776}, {"measurement": "Gs hCB2", "setting": "Log [Compound] (M) -11.4949", "value": 8459}, {"measurement": "G13 hCB2", "setting": "Log [Compound] (M) -11.9208", "value": 343}, {"measurement": "G15 hCB2", "setting": "Log [Compound] (M) -11.9208", "value": 862}, {"measurement": "Gq hCB2", "setting": "Log [Compound] (M) -11.9208", "value": 1776}, {"measurement": "Gs hCB2", "setting": "Log [Compound] (M) -11.9208", "value": 9036}, {"measurement": "G13 hCB2", "setting": "Log [Compound] (M) -12.3979", "value": 327}, {"measurement": "G15 hCB2", "setting": "Log [Compound] (M) -12.3979", "value": 871}, {"measurement": "Gq hCB2", "setting": "Log [Compound] (M) -12.3979", "value": 1850}, {"measurement": "Gs hCB2", "setting": "Log [Compound] (M) -12.3979", "value": 8912}, {"measurement": "G13 hCB2", "setting": "Log [Compound] (M) -12.8861", "value": 293}, {"measurement": "G15 hCB2", "setting": "Log [Compound] (M) -12.8861", "value": 841}, {"measurement": "Gq hCB2", "setting": "Log [Compound] (M) -12.8861", "value": 1768}, {"measurement": "Gs hCB2", "setting": "Log [Compound] (M) -12.8861", "value": 8754}, {"measurement": "G13 hCB2", "setting": "Log [Compound] (M) -13", "value": "352 and 368"}, {"measurement": "G15 hCB2", "setting": "Log [Compound] (M) -13", "value": "772 and 852"}, {"measurement": "Gq hCB2", "setting": "Log [Compound] (M) -13", "value": "1940 and 1790"}, {"measurement": "Gs hCB2", "setting": "Log [Compound] (M) -13", "value": "8891 and 8980"}, {"measurement": "pEC50", "setting": "hCB2 Barr2 + GRK2", "value": 8.38}, {"measurement": "pEC50", "setting": "hCB2 Gi2", "value": 8.80}, {"measurement": "pEC50", "setting": "hCB2 GoB", "value": 8.59}, {"measurement": "pEC50", "setting": "hCB2 Gz", "value": 8.59}, {"measurement": "Emax", "setting": "read-out: Emax [95% CI], hCB2 Barr2 + GRK2", "value": 30, "unit": "%"}, {"measurement": "Emax", "setting": "read-out: Emax [95% CI], hCB2 Gi1", "value": 74, "unit": "%"}, {"measurement": "Emax", "setting": "read-out: Emax [95% CI], hCB2 Gi2", "value": 61, "unit": "%"}, {"measurement": "Emax", "setting": "read-out: Emax [95% CI], hCB2 GoB", "value": 59, "unit": "%"}, {"measurement": "Emax", "setting": "read-out: Emax [95% CI], hCB2 Gz", "value": 52, "unit": "%"}]}]}
